Measurements reported in publication doi:10.1101/2024.10.29.620944v2, “Discovery and isolation of novel capsaicinoids and their TRPV1-related activity” (biorxiv, 2025).
Read-outs that look alike come from different tables or passages of the source.

Key:
[1] = molecular target: T1, rat TRPV1 receptor (rTRPV1) (Rattus norvegicus, UniProt O35433); experiment: Fluo-4 calcium influx assay, FDSS, irTRPV1-FlpIn293 cells; format: cell-based
T1 construct: rat TRPV1 stably expressed under doxycycline control (Tet-on) in Flp-In T-REx-293 cells (irTRPV1-FlpIn293); homotetramer
T1 sequence (O35433 whole entry): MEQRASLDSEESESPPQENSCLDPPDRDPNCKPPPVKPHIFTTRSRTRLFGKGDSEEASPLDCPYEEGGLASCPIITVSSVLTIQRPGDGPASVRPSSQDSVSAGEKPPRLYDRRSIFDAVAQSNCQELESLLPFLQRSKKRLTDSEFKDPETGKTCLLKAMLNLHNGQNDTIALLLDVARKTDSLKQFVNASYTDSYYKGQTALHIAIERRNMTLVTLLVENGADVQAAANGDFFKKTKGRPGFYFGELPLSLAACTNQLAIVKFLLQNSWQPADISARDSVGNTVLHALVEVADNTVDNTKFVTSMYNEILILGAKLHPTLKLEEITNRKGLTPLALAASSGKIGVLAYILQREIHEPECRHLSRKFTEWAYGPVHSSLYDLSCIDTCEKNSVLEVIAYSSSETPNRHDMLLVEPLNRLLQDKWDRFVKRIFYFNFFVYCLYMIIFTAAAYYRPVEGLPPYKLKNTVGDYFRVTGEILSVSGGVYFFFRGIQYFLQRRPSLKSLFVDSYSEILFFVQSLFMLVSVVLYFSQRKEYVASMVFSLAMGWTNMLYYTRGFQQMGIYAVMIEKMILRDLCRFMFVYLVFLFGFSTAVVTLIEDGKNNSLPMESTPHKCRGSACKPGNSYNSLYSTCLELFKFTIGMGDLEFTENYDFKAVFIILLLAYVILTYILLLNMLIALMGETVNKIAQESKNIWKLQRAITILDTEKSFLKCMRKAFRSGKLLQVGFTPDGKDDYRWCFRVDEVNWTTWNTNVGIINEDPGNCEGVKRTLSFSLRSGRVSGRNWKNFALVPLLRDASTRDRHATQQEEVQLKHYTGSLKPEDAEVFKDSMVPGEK

[2] = molecular target: T1, rat TRPV1 receptor (rTRPV1); experiment: cell-based
Procedure: Purchased capsaicinoid standards, capsiate (both MedChemExpress), vanillin (Honeywell Fluka) and 4-hydroxy-3-methoxybenzyl alcohol (Alfa Aesar) and AMG-517 (TargetMol, Boston, MA, USA) were all dissolved in DMSO to 10 mM as stock solutions. Stably transfected irTRPV1-FlpIn293 cells with Tet-on system (procedure described in Supplementary Methods 1.3) were grown to confluence in Advanced Dulbecco’s Modified Eagle Medium (Adv-DMEM/F12, #12634) supplemented with 10% FBS, 1% Pen Strep, 1% Glutamax (all Gibco, Thermo Fisher Scientific). Forty-eight hours before the experiment, doxycycline (final concentration 1 μg/mL)(Sigma-Aldrich, St.Luid, Mi., USA) and 10 μM ruthenium red (RR; Merck KGaG, Darmstadt, Germany) were added to the media to induce TRPV1 expression. After 24 hours, the cells were washed and detached with 0.5% trypsin–EDTA in PBS (Gibco). Cells resuspended in blocking media (Adv-DMEM/F12 + 10% FBS + 10 μM RR) were counted and then seeded into a 384-well plate (3674, Corning, Corning, NY, USA) in the amount of 3×10^4 per well. Twenty-four hours after seeding, a 2× Fluo-4 direct dye solution (Invitrogen, Thermo Fisher Scientific), dissolved in HHBS buffer, pH ∼ 7.4, was added to well with cells and incubated for 30 minutes at 37°C and then for 40 minutes at room temperature. Once incubated with the dye, the supernatant was removed using BlueWasher (BlueCatbio NH Inc., Lebanon, NH, USA) and changed to an HHBS + 10 μM sulfinpyrazone (Merck KGaG) solution added by Certus (Fritz Gyger AG, Gwatt, Switzerland), followed by 10 minutes of incubation in FDSS μCell (∼ 30°C; Hamamatsu, Hamamatsu city, Japan). A separate compound plate was prepared using an Echo dispenser 650 (Beckman Coulter Inc.,Brea, CA, USA). The final concentration was reached by adding HHBS + 10 μM sulfinpyrazone as above by Certus. The rTRPV1 activity measurement started by recording the baseline (40 s, sample interval 0.339 s). Then the compounds/compound mixture were transferred to the dedicated wells by tips while the recording was running for the next 5 minutes.

[3] = molecular target: T1, rat TRPV1 receptor (rTRPV1); experiment: cell-based; design: species or system irTRPV1-FlpIn293 (HEK293); Fluo-4 calcium influx, FDSS, TRPV1 activation
Procedure: Purchased capsaicinoid standards, capsiate (both MedChemExpress), vanillin (Honeywell Fluka) and 4-hydroxy-3-methoxybenzyl alcohol (Alfa Aesar) and AMG-517 (TargetMol, Boston, MA, USA) were all dissolved in DMSO to 10 mM as stock solutions. Stably transfected irTRPV1-FlpIn293 cells with Tet-on system (procedure described in Supplementary Methods 1.3) were grown to confluence in Advanced Dulbecco’s Modified Eagle Medium (Adv-DMEM/F12, #12634) supplemented with 10% FBS, 1% Pen Strep, 1% Glutamax (all Gibco, Thermo Fisher Scientific). Forty-eight hours before the experiment, doxycycline (final concentration 1 μg/mL)(Sigma-Aldrich, St.Luid, Mi., USA) and 10 μM ruthenium red (RR; Merck KGaG, Darmstadt, Germany) were added to the media to induce TRPV1 expression. After 24 hours, the cells were washed and detached with 0.5% trypsin–EDTA in PBS (Gibco). Cells resuspended in blocking media (Adv-DMEM/F12 + 10% FBS + 10 μM RR) were counted and then seeded into a 384-well plate (3674, Corning, Corning, NY, USA) in the amount of 3×10^4 per well. Twenty-four hours after seeding, a 2× Fluo-4 direct dye solution (Invitrogen, Thermo Fisher Scientific), dissolved in HHBS buffer, pH ∼ 7.4, was added to well with cells and incubated for 30 minutes at 37°C and then for 40 minutes at room temperature. […]

[4] = Flp-In-T-REx-293; read-out: Top

| Compound | EC50 ([1]; read-out: EC50) [nM] | Emax [2, 4] [%] | also measured |
| --- | --- | --- | --- |
| COc1cc(CNC(=O)CCCCCCCC(C)C)ccc1O [compound 4, Homodihydrocapsaicin I] | 320 |  |  |
| COc1cc(CNC(=O)CCCCCC(=O)C(C)C)ccc1O [compound 31, N-(4-Hydroxy-3-methoxybenzyl)-8-methyl-7-oxononanamide] | 560 | 84.2 | EC50 [2]: 602 nM |
| COc1cc(CNC(=O)CCCCCC(O)C(C)C)ccc1O (stereo not drawn) [compound 34, N-vanillyl-7-hydroxy-8-methylnonamide] | 1460 | 90.6 |  |
| COc1cc(COC(=O)CCCC/C=C/C(C)C)ccc1O [compound 39, capsiate] |  |  | EC50 [3]: 491 µM |
| COc1cc(CNC(=O)CCCC/C=C/C(C)C)cc(-c2cc(CNC(=O)CCCCCCC(C)C)cc(OC)c2O)c1O [compound 23, 6″,7″-Dihydro-5′,5‴-dicapsaicin] |  | 90.7 | EC50 ([1]; agonist, HHBS pH ~7.4, ~30 °C, unreliable (sample 79.94% pure, trace monomers may inflate the potency), read-out: EC50): 10270 nM; EC50 [2]: 10300 nM |
| CCCCCCCC/C=C\CCCCCCCC(=O)NCc1ccc(O)c(OC)c1 [compound 20, Olvanil] | 120 | 40.4 |  |
| COc1cc(CNC(=O)C=CC=CC(C)C)ccc1O [compound 35, N-vanillyl 6-Methyl-2,4-heptadienamide] | 1200 | 77.8 |  |
| COc1cc(CNC(=O)CCCC/C=C/C(C)C)ccc1O[C@@H]1O[C@H](CO)[C@@H](O)[C@H](O)[C@H]1O [compound 24, Capsaicin β-D-glucopyranoside] | 4690 | 102 |  |
| CCCCCCCC(=O)NCc1ccc(O)c(OC)c1 [compound 13, N-vanillyl octanamide] | 150 | 93.7 |  |
| COc1cc(CNC(=O)CCCCC(C)C)ccc1O [compound 27, Nornordihydrocapsaicin] | 1040 | 94.8 |  |
| COc1cc(CNC(=O)CCCCCCCC(C)O)ccc1O (stereo not drawn) [compound 33, N-vanillyl-9-hydroxydecanamide] | 6330 | 96.5 |  |
| CCCCCCCCCC(=O)NCc1ccc(O)c(OC)c1 [compound 14, N-Vanillyldecanamide] | 200 | 114 |  |
| CCCCCCCCC(=O)NCc1ccc(O)c(OC)c1 [compound 17, Nonivamide] |  |  | Emax ([2]; Flp-In-T-REx-293, read-out: Top): 105% |
| COc1cc(CNC(=O)CCCC/C=C/C(C)C)cc(-c2cc(CNC(=O)CCCC/C=C/C(C)C)cc(OC)c2O)c1O [compound 38, 5,5’-dicapsaicin] |  | 83.3 | EC50 ([1]; agonist, HHBS pH ~7.4, ~30 °C, unreliable (trace monomers may inflate the potency)): 4.46E-06 (95% CI 3.848e-006 to 5.265e-006) M |
| COc1cc(CNC(=O)CCCC/C=C/C(C)CO)ccc1O (stereo not drawn) [compound 22, ω-Hydroxycapsaicin] | 5560 | 90 |  |
| COc1cc(CNC(=O)CCCCCCC(C)C)ccc1O [compound 2, Dihydrocapsaicin] | 50 |  |  |
| COc1cc(CNC(=O)CC/C=C/C(C)C)ccc1O [compound 10, Nornorcapsaicin] | 810 | 77.8 |  |
| COc1cc(CNC(=O)CCCCCC(C)C)ccc1O [compound 11, Nordihydrocapsaicin] |  |  | EC50 [2]: 53.4 nM |
| COc1cc(CNC(=O)CC/C=C/C=C/C(C)C)ccc1O [compound 16, N-vanillyl-4E,6E-dien-8-methylnonanamide] | 140 | 94.3 |  |
| COc1cc(CNC(=O)CCCCC2OC2C(C)C)ccc1O (stereo not drawn) [compound 32, Epicapsaicin] | 600 | 110 | EC50 [2]: 1110 nM |
| CCCCCCC(=O)NCc1ccc(O)c(OC)c1 [compound 26, N-Heptanoate vanillylamide] | 1810 | 114 |  |
| COc1cc(CNC(=O)CC(C)C)ccc1O [compound 30, N-isovalerylvanillylamin] | 2840 | 80 |  |
